{"source": "patent US6008196A", "about": "“Perfluoroalkyl ketone inhibitors of elastase and processes for making the same” (Hoechst Marion Roussel, Inc., priority 1996, dated 1999)", "data": [{"molecular_target": "T1, Human Neutrophil Elastase (Homo sapiens, UniProt P08246)", "T1 construct": "Enzyme is purified from human sputum, although recently it has become commercially available; from tissue; host or cells: human sputum", "T1 sequence (P08246 30-247 limits assumed)": "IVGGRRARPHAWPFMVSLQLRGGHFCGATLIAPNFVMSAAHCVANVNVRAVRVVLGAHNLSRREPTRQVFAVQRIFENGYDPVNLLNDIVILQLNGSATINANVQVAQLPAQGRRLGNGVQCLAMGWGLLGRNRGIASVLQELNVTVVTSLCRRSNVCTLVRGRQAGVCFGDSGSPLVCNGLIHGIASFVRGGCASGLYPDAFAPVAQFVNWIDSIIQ", "experiment": "Human neutrophil elastase assayed in vitro with N-MeOSuc-Ala-Ala-Pro-Val-p-nitroanilide as substrate", "assay_type": "biochemical", "details": "enzyme purified from human sputum", "experimental": "Human neutrophil elastase is assayed in vitro using N-MeOSuc-Ala-Ala-Pro-Val-p-nitroanilide, available commercially, as substrate. […] Enzyme is purified from human sputum, although recently it has become commercially available. Kinetic characterization of immediate inhibitors is by means of the Dixon plot, whereas the characterization of slow- and/or tight-binding inhibitors used data analysis techniques reviewed by Williams and Morrison. The synthesis and analytical use of a highly sensitive and convenient substrate of elastase is described in J. Bieth, B. Spiess and C. […] For the purposes of this table, MCBz refers to 4-(4-morpholinylcarbonyl)benzoyl and Pyr refers to 3-(3-pyridyl)propanoyl.", "units": {"Ki": "nM"}, "values": [{"smiles": "CC(C)C(NC(=O)[C@@H]1CCCN1C(=O)[C@@H](NC(=O)OC(C)(C)C)C(C)C)C(=O)C(F)(F)C(F)(F)C(F)(F)C(F)(F)F", "note": "(stereo partly drawn) [Boc--Val--Pro--Val--CF2 CF2 CF2 CF3, N-[(1,1-dimethylethoxy)carbonyl]-L-valyl-N'-[3,3,4,4,5,5,6,6,6-nonafluoro-1-(1-methylethyl)-2-oxohexyl]-L-prolinamide]", "Ki": 590}, {"smiles": "CC(C)C(NC(=O)[C@@H]1CCCN1C(=O)[C@@H](NC(=O)OC(C)(C)C)C(C)C)C(=O)C(F)(F)C(F)(F)C(F)(F)F", "note": "(stereo partly drawn) [Boc--Val--Pro--Val--CF2 CF2 CF3, N-[(1,1-dimethylethoxy)carbonyl]-L-valyl-N'-[3,3,4,4,5,5,5-heptafluoro-1-(1-methylethyl)-2-oxopentyl]-L-prolinamide]", "Ki": 490}, {"smiles": "CC(C)C(NC(=O)[C@@H]1CCCN1C(=O)[C@@H](NC(=O)c1ccc(C(=O)N2CCOCC2)cc1)C(C)C)C(=O)C(F)(F)C(F)(F)C(F)(F)F", "note": "(stereo partly drawn) [MCBz--Val--Pro--Val--CF2 CF2 CF3, N-[4-(4-morpholinylcarbonyl)benzoyl]-L-valyl-N'-[3,3,4,4,5,5,5-heptafluoro-1-(1-methylethyl)-2-oxopentyl]-L-prolinamide]", "Ki": 18}]}]}
